Experimental data reported in patent publication US12486280B2, “CDK inhibitors and uses thereof” (California Institute of Technology, priority 2018, dated 2025).
pIC50, pKi: −log10 of the molar value. Converted amounts (≈) assume the structure as drawn. Read-outs that look alike come from different tables or passages of the source.

Assays:
hERG potassium channels = hERG potassium channels (Homo sapiens (Human), UniProt Q12809); assay: hERG Inhibition Assay (QPatch automated patch clamp, CHO cells); conditions: percent of control current
Description: Effects of compounds on hERG potassium channel conductance was assessed using the automated patch clamp method QPatch^HTX. Compounds were prepared at 10 mM stocks. CHO cells stably expressing hERG potassium channels were used for this assay. Cells were cultured in a humidified and air-controlled 5% CO2) incubator at 37° C. Compound stocks and the positive control Amitriptyline were dissolved in 100% DMSO to make various solution concentrations. These solutions were further diluted into extracellular solution to achieve final concentrations for testing. The final DMSO concentration in extracellular solution was 0.30%. The hERG QPatch^HTX assay was conducted at room temperature.
The following voltage command protocol was used: • From the holding potential of −80 mV, the voltage was first stepped to −50 mV for 80 ms for leak subtraction, and then stepped to +20 mV for 4,800 ms to open hERG channels. • After which, the voltage was stepped back down to −50 mV for 5,000 ms, causing a “rebound” or tail current, which was measured and collected for data analysis. • Finally, the voltage was stepped back to the holding potential of −80 mV for 3,100 ms.
For each experiment, three additions of 5 μL of the vehicle were applied, followed by 30 runs of the voltage command protocol for a baseline period. Then, the ascending doses of each compound were added with three repetitions (5 μL of compound each time).

CDK4 = CDK4 (Homo sapiens (Human), UniProt P11802); assay: Cdk4 and 6 Enzymatic Inhibition Assay (radiometric 33PanQinase, Ki determination); type: biochemical
Description: (§1) 10 distinct concentrations were prepared, with a dilution endpoint of 6×10^−9 M in 100% DMSO. 100% DMSO was used as a control. 10 μL from each of the serial dilutions were aliquoted into separate wells of a 96-well plate and 90 μL of water were added to each of those wells. The plate was shaken thoroughly, and 5 μL from each of the plate's wells were transferred into wells of the assay plate. The final volume of wells in the assay plate was 50 μL. A11 compounds were tested at 10 assay concentrations in the range from 2×10^−6 M to 6×10^−11 M. The final DMSO concentration in the wells of the assay plate was 1% in all cases.
(§2) A radiometric protein kinase assay (33PanQinase® Activity Assay) was used for measuring the kinase activity of six protein kinases. A11 kinase assays were performed in 96-well FlashPlates™ from PerkinElmer (Boston, MA, USA). The assay for all protein kinases contained 70 mM HEPES-NaOH pH 7.5, 3 mM MgCl2, 3 mM MnCl2, 3 μM Na-orthovanadate, 1.2 mM DTT, 50 μg/mL PEG20000, ATP [γ-33P]-ATP (approx. 9×1005 cpm per well), protein kinase and substrate. The reaction cocktails were incubated at 30° C. for 60 minutes. The reaction was stopped with 50 μL of 2% (v/v) H3PO4, and plates were aspirated and washed two times with 200 μL 0.9% (w/v) NaCl. Incorporation of ^33Pi was determined with a microplate scintillation counter (Microbeta, Wallac).

CDK6 = CDK6 (Homo sapiens (Human), UniProt Q00534); assay: as above; type: biochemical
Description: as §1, §2

[1] = test system: drug-resistant cell lines of Table 2 (NCI-H1437, OV207, HCC1806, NCI-H2172); assay: Cell Line Growth Retardation Assay, resistant cohort; type: cell-based, human; conditions: Homo sapiens, […], geometric mean over resistant cohort; 6 days growth; read-out: AvgResIC50
Description: (§3) Cells were seeded at densities of 1,000-5,000 cells per well in 48-well tissue culture plates. After a 24 hours rest period, cells were treated with compound at 10 μM, 2 μM, 0.4 μM, 0.08 μM, 0.016 μM, and 0.0032 μM. A group of cells were treated with the vehicle in which the compound was prepared and served as a control. The cells were grown in the presence of compounds for 6 days and were counted on day 0 and day 6. A11 cell counting was performed using a Synentec Cellavista plate imager. […] Growth inhibition was calculated as a ratio of cell population doublings in the presence of compound versus the absence of compound. […] IC50 values for each compound (see Table 3; reported in μM) were calculated by fitting curves to data points from each dose-response assay using the Proc NLIN function in SAS for Windows version 9.2 (SAS Institute, Inc.).
(§4) These sensitive and resistant cohorts were interrogated for response to each compound, and IC50s were calculated for each cell line using the same technique described above. Average IC50s for the sensitive and resistant cohorts were calculated as geometric means of the group. “Therapeutic Window” for each compound was calculated by dividing the average IC50 for the drug-resistant group by the average IC50 for the drug-sensitive group.

[2] = Caco-2 Assay (Papp A to B); conditions: human, Caco-2, pH 7.4
Description: The degree of bi-directional human intestinal permeability for compounds was estimated using a Caco-2 cell permeability assay. Caco-2 cells were seeded onto polyethylene membranes in 96-well plates. The growth medium was refreshed every 4 to 5 days until cells formed a confluent cell monolayer. HBSS with 10 mM HEPES at pH 7.4 was used as the transport buffer. Compounds were tested at 2 μM bi-directionally in duplicate. Digoxin, nadolol and metoprolol were included as standards. Digoxin was tested at 10 μM bi-directionally in duplicate, while nadolol and metoprolol were tested at 2 μM in the A to B direction in duplicate. The final DMSO concentration was adjusted to less than 1% for all experiments. The plate was incubated for 2 hours in a CO2 incubator at 37° C., with 5% CO2 at saturated humidity. After incubation, all wells were mixed with acetonitrile containing an internal standard, and the plate was centrifuged at 4,000 rpm for 10 minutes. 100 μL supernatant was collected from each well and diluted with 100 μL distilled water for LC/MS/MS analysis. Concentrations of test and control compounds in starting solution, donor solution, and receiver solution were quantified by LC/MS/MS, using peak area ratio of analyte/internal standard. The apparent permeability coefficient Papp (cm/s) was calculated using the equation: Papp=(dCr/dt)×Vr/(A×C0) Where dCr/dt is the cumulative concentration of compound in the receiver chamber as a function of time (μM/s); Vr is the solution volume in the receiver chamber (0.075 mL on the apical side, 0.25 mL on the basolateral side); A is the surface area for the transport, which is 0.0804 cm^2 for the area of the monolayer; C0 is the initial concentration in the donor chamber (μM).

[3] = test system: CYP isozymes (IC50s averaged over the isozymes); assay: CYP Enzymatic Inhibition Assay in human liver microsomes
Description: Inhibition of various CYP isozymes was measured for each compound using a CYP enzyme inhibition assay in human liver microsomes (HLM). Compounds and standard inhibitors were prepared at a 100× working solutions. Substrates or PBS were added to the corresponding wells followed by addition of compounds, solvent or positive control working solution to corresponding wells. HLMs were added to the pre-warmed (37° C.) plate and mixed with NADPH cofactor for 10 minutes at 37° C. The reaction was terminated by adding 400 μL cold stop solution (200 ng/mL Tolbutamide and 200 ng/mL Labetalol in ACN). The plate was centrifuged at 4,000 rpm for 20 minutes, and supernatant was transferred to 100 μL HPLC water followed by LC/MS/MS analysis.

[4] = Measurement of Compound Metabolic Stability in hepatocytes
Description: The metabolic stability of compounds was determined in hepatocytes from mice and rats. Compounds were diluted to 5 μM in Williams' Medium E from 10 mM stock solutions. 10 μL of each compound was aliquoted into a well of a 96-well plate and reactions were started by aliquoting 40 μL of a 625,000 cells/mL suspension into each well. The plate was incubated at 37° C. with 5% CO2. At each corresponding time point, the reaction was stopped by quenching with ACN containing internal standards (IS) at a 1:3. Plates were shaken at 500 rpm for 10 min, and then centrifuged at 3,220×g for 20 minutes. Supernatants were transferred to another 96-well plate containing a dilution solution. Supernatants were analyzed by LC/MS/MS. Compound half-life was estimated using the following equation:

[5] = test system: drug-sensitive cell lines of Table 2 (EFM-19, MDA-MB-453, T-47D, ZR-75-1, NCI-H441, OVTOKO, NCI-H1838); assay: Cell Line Growth Retardation Assay, sensitive cohort; type: cell-based, human; conditions: for pIC50: Homo sapiens, geometric mean over sensitive cohort, 6 days growth, read-out: AvgSensIC50; for Ther Window: average IC50 drug-resistant group divided by average IC50 drug-sensitive group
Description: as §3, §4

[6] = Compound Solubility Assay (kinetic solubility); type: physicochemical; conditions: kinetic from dmso stock
Description: The relative kinetic solubility of each compound was determined at both low (1.2) and neutral (7.4) pH. Compounds were prepared at 10 mM stocks. […] Compounds were allowed to shake at room temperature for 24 hours in 50 mM phosphate buffer pH 7.4, or in SGF buffer pH 1.2 at 37° C. for 24 hours.

[7] = 50 mM phosphate buffer, pH 7.4, aqueous buffer, read-out: KS7
[8] = simulated gastric fluid, kinetic solubility, SGF buffer pH 1.2, 37° C., 24 hours, read-out: KS1

hERG potassium channels, sequence (Q12809 whole entry): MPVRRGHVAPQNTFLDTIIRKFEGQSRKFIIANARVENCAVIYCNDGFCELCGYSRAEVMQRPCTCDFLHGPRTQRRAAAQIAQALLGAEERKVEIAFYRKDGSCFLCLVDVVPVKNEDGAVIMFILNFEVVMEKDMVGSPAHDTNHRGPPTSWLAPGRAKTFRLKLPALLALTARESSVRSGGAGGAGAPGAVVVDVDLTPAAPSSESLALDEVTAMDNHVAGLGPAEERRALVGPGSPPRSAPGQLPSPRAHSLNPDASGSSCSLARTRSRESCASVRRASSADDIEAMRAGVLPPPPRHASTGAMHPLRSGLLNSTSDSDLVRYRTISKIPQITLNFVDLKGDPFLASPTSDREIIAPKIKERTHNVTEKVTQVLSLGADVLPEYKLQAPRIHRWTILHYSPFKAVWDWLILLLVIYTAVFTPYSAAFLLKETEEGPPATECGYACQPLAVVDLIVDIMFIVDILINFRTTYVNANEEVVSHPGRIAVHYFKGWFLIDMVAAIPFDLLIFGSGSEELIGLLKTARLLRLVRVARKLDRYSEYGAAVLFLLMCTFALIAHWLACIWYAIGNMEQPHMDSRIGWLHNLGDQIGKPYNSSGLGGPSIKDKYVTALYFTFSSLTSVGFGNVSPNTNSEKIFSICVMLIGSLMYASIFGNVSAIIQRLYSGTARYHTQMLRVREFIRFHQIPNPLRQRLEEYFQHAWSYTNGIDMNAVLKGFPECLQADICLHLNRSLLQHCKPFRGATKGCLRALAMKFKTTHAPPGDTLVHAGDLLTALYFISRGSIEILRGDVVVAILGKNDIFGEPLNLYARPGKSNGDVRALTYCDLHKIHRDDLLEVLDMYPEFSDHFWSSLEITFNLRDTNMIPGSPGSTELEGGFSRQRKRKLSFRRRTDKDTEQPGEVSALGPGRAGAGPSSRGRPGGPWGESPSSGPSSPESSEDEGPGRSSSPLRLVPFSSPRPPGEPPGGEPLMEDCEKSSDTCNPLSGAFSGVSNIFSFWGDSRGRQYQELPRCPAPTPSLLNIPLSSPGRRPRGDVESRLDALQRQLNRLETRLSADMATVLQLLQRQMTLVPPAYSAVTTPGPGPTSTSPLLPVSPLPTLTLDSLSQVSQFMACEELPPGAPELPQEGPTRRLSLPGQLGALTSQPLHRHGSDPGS
CDK6, sequence (Q00534 whole entry): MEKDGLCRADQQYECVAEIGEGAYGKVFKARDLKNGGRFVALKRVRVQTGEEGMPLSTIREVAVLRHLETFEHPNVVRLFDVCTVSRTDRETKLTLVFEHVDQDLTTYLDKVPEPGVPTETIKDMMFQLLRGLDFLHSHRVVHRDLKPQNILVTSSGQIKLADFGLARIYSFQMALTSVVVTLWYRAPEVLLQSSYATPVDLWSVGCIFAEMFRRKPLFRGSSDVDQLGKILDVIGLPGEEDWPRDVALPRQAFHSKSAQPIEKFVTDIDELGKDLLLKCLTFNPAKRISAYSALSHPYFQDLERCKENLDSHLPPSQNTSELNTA
CDK6, sequence (P24385 whole entry partner): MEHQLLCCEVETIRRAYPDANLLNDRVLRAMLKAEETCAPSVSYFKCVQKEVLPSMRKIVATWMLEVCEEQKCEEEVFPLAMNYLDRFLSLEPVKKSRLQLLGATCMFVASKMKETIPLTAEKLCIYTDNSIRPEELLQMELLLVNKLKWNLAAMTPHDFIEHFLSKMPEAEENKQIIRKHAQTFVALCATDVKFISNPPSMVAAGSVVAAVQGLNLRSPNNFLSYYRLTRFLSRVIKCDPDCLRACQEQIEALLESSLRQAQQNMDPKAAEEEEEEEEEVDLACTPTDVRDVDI
CDK4, sequence (P11802 whole entry): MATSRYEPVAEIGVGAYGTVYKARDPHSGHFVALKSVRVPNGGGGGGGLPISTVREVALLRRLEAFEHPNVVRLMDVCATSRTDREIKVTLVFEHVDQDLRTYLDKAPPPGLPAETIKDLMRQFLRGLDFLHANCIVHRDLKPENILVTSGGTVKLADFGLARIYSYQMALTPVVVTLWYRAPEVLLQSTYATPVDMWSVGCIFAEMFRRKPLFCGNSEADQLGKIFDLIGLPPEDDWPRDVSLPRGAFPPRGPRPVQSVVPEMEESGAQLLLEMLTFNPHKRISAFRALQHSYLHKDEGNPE
CDK4, sequence (P24385 whole entry partner): as the sequence (P24385 whole entry partner) above

SMILES	pKi (CDK4)	pKi (CDK6)	pIC50 [1]	Papp A→B at 2 h, 2 μM [2] [×10⁻⁶ cm/s]	IC50 at 10 min [3] [nM]	half-life at 1 μM [4] [min]	pIC50 [5]	solubility kinetic at 24 h [6, 7] [µM]	solubility kinetic at 24 h [6, 8] [µM]	hERG (hERG potassium channels) [%]	Ther Window [5]
CC(=O)N1CC[C@]2(CN(Cc3ccc(Nc4ncc(F)c(-c5cc(F)c6nc(C)n(C(C)C)c6c5)n4)nc3)CCO2)C1 [Compound A37, (S)-1-(9-((6-((5-fluoro-4-(4-fluoro-1-isopropyl-2-methyl-1H-benzo[d]imidazol-6-yl)pyrimidin-2-yl)amino)pyridin-3-yl)methyl)-6-oxa-2,9-diazaspiro[4.5]decan-2-yl)ethan-1-one]	8.80	8.16	6.09	0.39	43300	27	6.59	109 (≈ 62.9 µg/mL)	197 (≈ 114 µg/mL)	15.08	3.10
CC(=O)N1CC[C@@]2(CN(Cc3ccc(Nc4ncc(F)c(-c5cc(F)c6nc(C)n(C(C)C)c6c5)n4)nc3)CCO2)C1 [Compound A36]	8.72	7.97	6.04	0.59	23400	30.8	6.60	3.28 (≈ 1.89 µg/mL)	200 (≈ 115 µg/mL)	21.60	3.57
COC(=O)N1CC[C@]2(CN(Cc3ccc(Nc4ncc(F)c(-c5cc(F)c6nc(C)n(C(C)C)c6c5)n4)nc3)CCO2)C1 [Compound A30, methyl (S)-9-((6-((5-fluoro-4-(4-fluoro-1-isopropyl-2-methyl-1H-benzo[d]imidazol-6-yl)pyrimidin-2-yl)amino)pyridin-3-yl)methyl)-6-oxa-2,9-diazaspiro[4.5]decane-2-carboxylate]	8.53	7.78	6.00	4.6	30000	4.99	6.96	2.52 (≈ 1.49 µg/mL)	200 (≈ 119 µg/mL)	15.21	9.41
Cc1nc2c(F)cc(-c3nc(Nc4ccc(CN5CC6(C5)CS(=O)(=O)C6)cn4)ncc3F)cc2n1C(C)C [Compound A62, 6-((6-((5-fluoro-4-(4-fluoro-1-isopropyl-2-methyl-1H-benzo[d]imidazol-6-yl)pyrimidin-2-yl)amino)pyridin-3-yl)methyl)-2-thia-6-azaspiro[3.3]heptane 2,2-dioxide]	9.23	8.42	6.14	0.15	33900	33.9	7.05	1 (≈ 0.54 µg/mL)	190 (≈ 103 µg/mL)	40.8	8.11
Cc1nc2c(F)cc(-c3nc(Nc4ccc(CN5CCN(C)C(C)(C)C5)cn4)ncc3F)cc2n1C(C)C [Compound A43, 5-fluoro-4-(4-fluoro-1-isopropyl-2-methyl-1H-benzo[d]imidazol-6-yl)-N-(5-((3,3,4-trimethylpiperazin-1-yl)methyl)pyridin-2-yl)pyrimidin-2-amine]	9.11	8.38	6.00	0.27	90600	24.2	7.15	8.37 (≈ 4.36 µg/mL)	200 (≈ 104 µg/mL)	12.12	15.03

Now from value to molecule, other results behind:

pKi (CDK4)	pKi (CDK6)	pIC50 [1]	Papp A→B at 2 h, 2 μM [2] [×10⁻⁶ cm/s]	IC50 at 10 min [3] [nM]	half-life at 1 μM [4] [min]	pIC50 [5]	solubility kinetic at 24 h [6, 7] [µM]	solubility kinetic at 24 h [6, 8] [µM]	SMILES	hERG (hERG potassium channels) [%]	Ther Window [5]
8.60	7.84	6.00	2.14	26100	15.3	6.92	1 (≈ 0.619 µg/mL)	200 (≈ 124 µg/mL)	Cc1nc2c(F)cc(-c3nc(Nc4ccc(CN5CCO[C@](C)(CCNCC(F)(F)F)C5)cn4)ncc3F)cc2n1C(C)C [Compound A9, (R)-5-fluoro-4-(4-fluoro-1-isopropyl-2-methyl-1H-benzo[d]imidazol-6-yl)-N-(5-((2-methyl-2-(2-((2,2,2-trifluoroethyl)amino)ethyl)morpholino)methyl)pyridin-2-yl)pyrimidin-2-amine]	21.86	8.59
9.28	8.45	6.06	0.05	35800	202	7.10	15.6 (≈ 8.57 µg/mL)	200 (≈ 110 µg/mL)	CNCC[C@@]1(C)CN(Cc2ccc(Nc3ncc(F)c(-c4cc(F)c5nc(C)n(C(C)C)c5c4)n3)nc2)CCO1 [Compound A22, (S)-5-fluoro-4-(4-fluoro-1-isopropyl-2-methyl-1H-benzo[d]imidazol-6-yl)-N-(5-((2-methyl-2-(2-(methylamino)ethyl)morpholino)methyl)pyridin-2-yl)pyrimidin-2-amine]	15.58	10.57
9.08	8.27	6.00	1.12	14600	14.2	7.00			Cc1nc2c(F)cc(-c3nc(Nc4ccc(CN5CCO[C@](C)(CCNCC(F)F)C5)cn4)ncc3F)cc2n1C(C)C [Compound A6, (R)—N-(5-((2-(2-((2,2-difluoroethyl)amino)ethyl)-2-methylmorpholino)methyl)pyridin-2-yl)-5-fluoro-4-(4-fluoro-1-isopropyl-2-methyl-1H-benzo[d]imidazol-6-yl)pyrimidin-2-amine]	32.76	10.42
9.04	8.30	6.01	0.69	16900	10.7	7.10			Cc1nc2c(F)cc(-c3nc(Nc4ccc(CN5CCO[C@](C)(CCN6CC[C@H](F)C6)C5)cn4)ncc3F)cc2n1C(C)C [Compound A14, 5-fluoro-4-(4-fluoro-1-isopropyl-2-methyl-1H-benzo[d]imidazol-6-yl)-N-(5-(((R)-2-(2-((S)-3-fluoropyrrolidin-1-yl)ethyl)-2-methylmorpholino)methyl)pyridin-2-yl)pyrimidin-2-amine]	23.34	11.53
8.74	7.98	6.05	1.95	16400	5.84	6.77			Cc1nc2c(F)cc(-c3nc(Nc4ccc(CN5CCO[C@](C)(CCN(C)CC(F)F)C5)cn4)ncc3F)cc2n1C(C)C [Compound A29, (R)—N-(5-((2-(2-((2,2-difluoroethyl)(methyl)amino)ethyl)-2-methylmorpholino)methyl)pyridin-2-yl)-5-fluoro-4-(4-fluoro-1-isopropyl-2-methyl-1H-benzo[d]imidazol-6-yl)pyrimidin-2-amine]	25.45	5.36
